Measurements: ChEMBL document CHEMBL3044556, “Managing weeds with drip-applied herbicides in tomato” (2008)

How the values were obtained:
Type in all cases: functional
Digitaria [1] = experiment: Pre-emergence herbicidal activity against Digitaria spp. in tomato field assessed as number of weeds at 1.14 kg/ha applied through drip lines/backpack-spray on week 3 to 4 before transplanting measured 7 weeks after treatment (reference value: 9 plants/m2)
Eleusine indica [2] = experiment: Pre-emergence herbicidal activity against Eleusine indica in tomato field assessed as increase in total marketable weight at 1.14 kg/ha applied through drip lines/backpack-spray on week 3 to 4 before transplanting relative to untreated control; conditions: pooled result: one value given for 8 cell lines, strains, targets or settings
Corynandra viscosa [3] = experiment: Pre-emergence herbicidal activity against Cleome viscosa in tomato field assessed as increase in extra-large fruit weight at 1.14 kg/ha applied through drip lines/backpack-spray on week 3 to 4 before transplanting relative to untreated control
Portulaca oleracea [4] = experiment: Pre-emergence herbicidal activity against Portulaca oleracea in tomato field assessed as increase in extra-large fruit weight at 1.14 kg/ha applied through drip lines/backpack-spray on week 3 to 4 before transplanting relative to untreated control
Eleusine indica [5] = experiment: Pre-emergence herbicidal activity against Eleusine indica in tomato field assessed as total number of fruits at 1.14 kg/ha applied through drip lines/backpack-spray on week 3 to 4 before transplanting (reference value: 49.5 x 10 '3 ha); conditions: pooled result: one value given for 8 cell lines, strains, targets or settings
Corynandra viscosa [6] = experiment: Pre-emergence herbicidal activity against Cleome viscosa in tomato field assessed as number of weeds at 1.14 kg/ha applied through drip lines/backpack-spray on week 3 to 4 before transplanting measured 7 weeks after treatment (reference value: 9 plants/m2)
Digitaria [7] = experiment: Pre-emergence herbicidal activity against Digitaria spp. in tomato field assessed as number of weeds at 1.14 kg/ha applied through drip lines/backpack-spray on week 3 to 4 before transplanting measured 12 weeks after treatment (reference value: 9 plants/m2)
Boerhavia erecta [8] = experiment: Pre-emergence herbicidal activity against Boerhavia erecta in tomato field assessed as number of weeds at 1.14 kg/ha applied through drip lines/backpack-spray on week 3 to 4 before transplanting measured 12 weeks after treatment (reference value: 9 plants/m2)
Corynandra viscosa [9] = experiment: Pre-emergence herbicidal activity against Cleome viscosa in tomato field assessed as number of weeds at 1.14 kg/ha applied through drip lines/backpack-spray on week 3 to 4 before transplanting measured 12 weeks after treatment (reference value: 9 plants/m2)
Boerhavia erecta [10] = experiment: Pre-emergence herbicidal activity against Boerhavia erecta in tomato field assessed as increase in extra-large fruit weight at 1.14 kg/ha applied through drip lines/backpack-spray on week 3 to 4 before transplanting relative to untreated control
Echinochloa colona [11] = experiment: Pre-emergence herbicidal activity against Echinochloa colona in tomato field assessed as number of weeds at 1.14 kg/ha applied through drip lines/backpack-spray on week 3 to 4 before transplanting measured 7 weeks after treatment (reference value: 9 plants/m2)
Amaranthus dubius [12] = experiment: Pre-emergence herbicidal activity against Amaranthus dubius in tomato field assessed as number of weeds at 1.14 kg/ha applied through drip lines/backpack-spray on week 3 to 4 before transplanting measured 7 weeks after treatment (reference value: 9 plants/m2)
Cyperus [13] = experiment: Pre-emergence herbicidal activity against Cyperus in tomato field assessed as number of weeds at 1.14 kg/ha applied through drip lines/backpack-spray on week 3 to 4 before transplanting measured 7 weeks after treatment (reference value: 3 plants/m2)
Echinochloa colona [14] = experiment: Pre-emergence herbicidal activity against Echinochloa colona in tomato field assessed as increase in extra-large fruit weight at 1.14 kg/ha applied through drip lines/backpack-spray on week 3 to 4 before transplanting relative to untreated control
Eleusine indica [15] = experiment: Pre-emergence herbicidal activity against Eleusine indica in tomato field assessed as number of weeds at 1.14 kg/ha applied through drip lines/backpack-spray on week 3 to 4 before transplanting measured 7 weeks after treatment (reference value: 9 plants/m2)
Portulaca oleracea [16] = experiment: Pre-emergence herbicidal activity against Portulaca oleracea in tomato field assessed as number of weeds at 1.14 kg/ha applied through drip lines/backpack-spray on week 3 to 4 before transplanting measured 12 weeks after treatment (reference value: 9 plants/m2)
Portulaca oleracea [17] = experiment: Pre-emergence herbicidal activity against Portulaca oleracea in tomato field assessed as number of weeds at 1.14 kg/ha applied through drip lines/backpack-spray on week 3 to 4 before transplanting measured 7 weeks after treatment (reference value: 9 plants/m2)
Echinochloa colona [18] = experiment: Pre-emergence herbicidal activity against Echinochloa colona in tomato field assessed as number of weeds at 1.14 kg/ha applied through drip lines/backpack-spray on week 3 to 4 before transplanting measured 12 weeks after treatment (reference value: 9 plants/m2)
Cyperus [19] = experiment: Pre-emergence herbicidal activity against Cyperus in tomato field assessed as number of weeds at 1.14 kg/ha applied through drip lines/backpack-spray on week 3 to 4 before transplanting measured 12 weeks after treatment (reference value: 5 plants/m2)
Eleusine indica [20] = experiment: Pre-emergence herbicidal activity against Eleusine indica in tomato field assessed as number of weeds at 1.14 kg/ha applied through drip lines/backpack-spray on week 3 to 4 before transplanting measured 12 weeks after treatment (reference value: 9 plants/m2)
Eleusine indica [21] = experiment: Pre-emergence herbicidal activity against Eleusine indica in tomato field assessed as increase in extra-large fruit weight at 1.14 kg/ha applied through drip lines/backpack-spray on week 3 to 4 before transplanting relative to untreated control
Trianthema [22] = experiment: Pre-emergence herbicidal activity against Trianthema spp. in tomato field assessed as number of weeds at 1.14 kg/ha applied through drip lines/backpack-spray on week 3 to 4 before transplanting measured 12 weeks after treatment (reference value: 9 plants/m2)
Digitaria [23] = experiment: Pre-emergence herbicidal activity against Digitaria spp. in tomato field assessed as increase in extra-large fruit weight at 1.14 kg/ha applied through drip lines/backpack-spray on week 3 to 4 before transplanting relative to untreated control
Amaranthus dubius [24] = experiment: Pre-emergence herbicidal activity against Amaranthus dubius in tomato field assessed as number of weeds at 1.14 kg/ha applied through drip lines/backpack-spray on week 3 to 4 before transplanting measured 12 weeks after treatment (reference value: 9 plants/m2)
Amaranthus dubius [25] = experiment: Pre-emergence herbicidal activity against Amaranthus dubius in tomato field assessed as increase in extra-large fruit weight at 1.14 kg/ha applied through drip lines/backpack-spray on week 3 to 4 before transplanting relative to untreated control
Poaceae [26] = experiment: Pre-emergence herbicidal activity against Poaceae (grass family) in tomato field assessed as number of weeds at 1.14 kg/ha applied through drip lines/backpack-spray on week 3 to 4 before transplanting measured 12 weeks after treatment (reference value: 8 plants/m2)
Poaceae [27] = experiment: Pre-emergence herbicidal activity against Poaceae (grass family) in tomato field assessed as number of weeds at 1.14 kg/ha applied through drip lines/backpack-spray on week 3 to 4 before transplanting measured 7 weeks after treatment (reference value: 6 plants/m2)
Boerhavia erecta [28] = experiment: Pre-emergence herbicidal activity against Boerhavia erecta in tomato field assessed as number of weeds at 1.14 kg/ha applied through drip lines/backpack-spray on week 3 to 4 before transplanting measured 7 weeks after treatment (reference value: 9 plants/m2)
Trianthema [29] = experiment: Pre-emergence herbicidal activity against Trianthema spp. in tomato field assessed as number of weeds at 1.14 kg/ha applied through drip lines/backpack-spray on week 3 to 4 before transplanting measured 7 weeks after treatment (reference value: 9 plants/m2)
Trianthema [30] = experiment: Pre-emergence herbicidal activity against Trianthema spp. in tomato field assessed as number of extra-large fruits at 1.14 kg/ha applied through drip lines/backpack-spray on week 3 to 4 before transplanting (reference value: 21.3 x 10 '3 ha); conditions: pooled result: one value given for 8 cell lines, strains, targets or settings
Trianthema [31] = experiment: Pre-emergence herbicidal activity against Trianthema spp. in tomato field assessed as increase in extra-large fruit weight at 1.14 kg/ha applied through drip lines/backpack-spray on week 3 to 4 before transplanting relative to untreated control

Q: `CCc1cccc(C)c1N(C(=O)CCl)[C@@H](C)COC` [S-METOLACHLOR] was tested. Which Activity (Digitaria [1]) did it give?
A: The Activity was 3 /m2.

Q: And the Activity (Eleusine indica [2])?
A: The Activity was 57%.

Q: And the Activity (Corynandra viscosa [3])?
A: Its Activity is 75%.

Q: What about the Activity (Portulaca oleracea [4]) of the same compound?
A: Its Activity is 75%.

Q: And the fruit count (Eleusine indica [5])?
A: Its fruit count is 70.8 10^3 fruits/ha.

Q: What about the Activity (Corynandra viscosa [6]) of the same compound?
A: The Activity was 3 /m2.

Q: What about the Activity (Digitaria [7]) of the same compound?
A: The Activity was 2 /m2.

Q: What about the Activity (Boerhavia erecta [8]) of the same compound?
A: The Activity was 2 /m2.

Q: What about the Activity (Corynandra viscosa [9]) of the same compound?
A: Its Activity is 2 /m2.

Q: And the Activity (Boerhavia erecta [10])?
A: The Activity was 75%.

Q: What about the Activity (Echinochloa colona [11]) of the same compound?
A: The Activity was 3 /m2.

Q: And the Activity (Amaranthus dubius [12])?
A: Its Activity is 3 /m2.

Q: What about the Activity (Cyperus [13]) of the same compound?
A: The Activity was 2 /m2.

Q: What about the Activity (Echinochloa colona [14]) of the same compound?
A: Its Activity is 75%.

Q: And the Activity (Eleusine indica [15])?
A: Its Activity is 3 /m2.

Q: And the Activity (Portulaca oleracea [16])?
A: The Activity was 2 /m2.

Q: What about the Activity (Portulaca oleracea [17]) of the same compound?
A: Its Activity is 3 /m2.

Q: And the Activity (Echinochloa colona [18])?
A: The Activity was 2 /m2.

Q: And the Activity (Cyperus [19])?
A: Its Activity is 9 /m2.

Q: And the Activity (Eleusine indica [20])?
A: Its Activity is 2 /m2.

Q: And the Activity (Eleusine indica [21])?
A: The Activity was 75%.

Q: What about the Activity (Trianthema [22]) of the same compound?
A: Its Activity is 2 /m2.

Q: What about the Activity (Digitaria [23]) of the same compound?
A: The Activity was 75%.

Q: And the Activity (Amaranthus dubius [24])?
A: Its Activity is 2 /m2.

Q: What about the Activity (Amaranthus dubius [25]) of the same compound?
A: The Activity was 75%.

Q: And the Activity (Poaceae [26])?
A: Its Activity is 3 /m2.

Q: What about the Activity (Poaceae [27]) of the same compound?
A: Its Activity is 0 /m2.

Q: And the Activity (Boerhavia erecta [28])?
A: Its Activity is 3 /m2.

Q: And the Activity (Trianthema [29])?
A: Its Activity is 3 /m2.

Q: And the Activity (Trianthema [30])?
A: Its Activity is 35 10^3 fruits/ha.

Q: And the Activity (Trianthema [31])?
A: Its Activity is 75%.
